# Assays:
# LmxCLK1 = molecular target: T1, LmxCLK1 (Leishmania mexicana, UniProt E9AMP2); test: Intact mass LC-MS for covalent adduct formation; type: binding; conditions: 2 h incubation at room temperature, inhibitor:protein 3:1
# T1 sequence (E9AMP2 1-422): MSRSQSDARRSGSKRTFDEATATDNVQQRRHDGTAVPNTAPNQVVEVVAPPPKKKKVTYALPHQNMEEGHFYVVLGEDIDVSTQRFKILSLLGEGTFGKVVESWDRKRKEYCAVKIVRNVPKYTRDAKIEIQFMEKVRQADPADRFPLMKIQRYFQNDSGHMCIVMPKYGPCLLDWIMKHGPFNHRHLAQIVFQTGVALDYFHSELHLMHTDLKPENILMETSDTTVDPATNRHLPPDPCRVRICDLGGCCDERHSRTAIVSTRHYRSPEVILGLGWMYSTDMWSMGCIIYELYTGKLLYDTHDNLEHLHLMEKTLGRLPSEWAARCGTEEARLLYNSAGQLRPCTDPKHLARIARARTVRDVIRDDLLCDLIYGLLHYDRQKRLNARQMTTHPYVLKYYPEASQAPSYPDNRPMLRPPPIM
# Procedure: Samples were analyzed by LC-ESI-MS in a XEVO G2 Sx Q-ToF (Waters) at LACTAD-UNICAMP, Brazil. […]
# where background is the background fluorescence obtained in the absence of enzyme (blank).
# To determine IC50 values, the background-corrected HTRF ratio was plotted as a function of test compound concentration, and the data were fitted to the sigmoidal dose-response (variable slope) equation [2] available in GraphPad Prism (v. 9.1.0):
# Signal ratio (665/620) = Plateau + Plateau)(* − Plateau’())($ [2] […]
# where Hill = Hill slope describing the steepness of the curve and x = test compound concentration.
# To obtain normalized enzymatic activity we used the background corrected HTRF ratio of enzymatic […]
# and 0% enzyme activity, respectively.
# To establish the contribution of compound pre-incubation to the IC50 assay, we pre-incubated WZ8040 with LmxCLK1 for 5, 10, 15 and 30 minutes at room temperature, prior to starting the phosphorylation reaction by adding ATP and the peptide substrate. The enzymatic reactions were carried following the procedures described above.
# For fitting of kinact and KI values from endpoint pre-incubation IC50 data, we used the equation [3], first described by Krippendorff and colleagues:7 […]
# IC"&(t) = k. […]
# (CQMED clone ID LmxCLK1-cb001) and the two covalent inhibitors WZ8040 and WZ3146. […] Samples were analyzed by LC-ESI-MS in a XEVO G2 Sx Q-ToF (Waters) at LACTAD-UNICAMP, Brazil. […]
# [1] = system: LmxCLK1-overexpressing L. mexicana; test: microbe, parasite or virus in culture; type: cell-based, Leishmania mexicana
# [2] = system: T790M mutant form of EGFR; conditions: cited from earlier work
# [3] = system: L. mexicana T7/Cas9 Δclk1, Δclk2 and Cys172Ala LmxCLK1 lines; test: Viability of T7/Cas9 null mutant and cysteine point-mutant lines; type: cell-based, Leishmania mexicana; conditions: 96 h, versus parental T7/Cas9 line
# [4] = system: L. mexicana intracellular amastigotes; test: Intracellular amastigote viability in THP-1 macrophages (DAPI counting); type: cell-based; conditions: Leishmania mexicana, macrophage-internalized amastigotes, 48 h
# [5] = system: THP-1-derived macrophages; conditions: human, 24 h, 100 µM
smiles,measurement,setting,value
C=CC(=O)Nc1cccc(Oc2nc(Nc3ccc(N4CCN(C)CC4)cc3)ncc2Cl)c1 [WZ3146],Covalent adduct formation with purified LmxCLK1,LmxCLK1,formation of covalent adducts
C=CC(=O)Nc1cccc(Sc2nc(Nc3ccc(N4CCN(C)CC4)cc3)ncc2Cl)c1 [WZ8040],EC50,"[1]; Leishmania mexicana, read-out: EC50 LmxCLK1-overexpressing parasites",17.6 µM
same,Reduction of parasite sensitivity by LmxCLK1 overexpression,[1]; compared to wild-type parasites,approximately 3 fold
same,Covalent adduct formation with purified LmxCLK1,LmxCLK1,formation of covalent adducts
same,Selectivity for T790M mutant EGFR compared to wild-type enzyme,[2],over 10 fold
same,Sensitivity of Δclk1 line,[3],significantly enhanced sensitivity
same,EC50,[4],2.1 µM
same,Reduction in macrophage viability,[5],~ 15%
